Laboratory results: patent publication US20020137929A1, “1 - (3-heterocyclylphenyl) isothiourea, -isourea, -guanidine and -amidine herbicidal agents” (Intellectual Property Department, BASF Aktiengesellschaft, priority 1998, published 2002)

How the values were obtained:
[1] = tested on: ABUTH (Velvetleaf); assay: Postemergence herbicidal evaluation; type: in vivo, Abutilon theophrasti; conditions: postemergence
In short: (§1)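 Each compound, dispersed in an acetone/water mix (50/50) carrying 0.5% TWEEN 20, is nozzle-sprayed at 40 psi on approximately two-week-old seedlings at about 0.0156–0.500 kg/ha. Plants are assessed 4–5 weeks afterward on a 0–9 scale relative to control; duplicate tests are averaged.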

[2] = tested on: IPOHE (Morningglory, Ivyleaf); assay: Postemergence herbicidal evaluation; type: in vivo, Ipomoea hederacea; conditions: postemergence
In short: as §1

[3] = tested on: TRZAWR (Wheat, Winter, cv Riband); assay: Postemergence herbicidal evaluation; type: in vivo, Triticum aestivum; conditions: postemergence
In short: as §1

[4] = tested on: CHEAL (Lambsquarters, Common); assay: Preemergence herbicidal evaluation; type: in vivo, Chenopodium album; conditions: rated 4-5 weeks after treatment
In short: (§2)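 Rating at 4–5 wk post-spray on a 0–9 visual scale vs control. Application: aqueous acetone, ~0.0156–0.500 kg/ha, to soil surface after seeding, preemergence.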

[5] = tested on: IPOHE (Morningglory, Ivyleaf); assay: Preemergence herbicidal evaluation; type: in vivo, Ipomoea hederacea; conditions: rated 4-5 weeks after treatment
In short: as §2

[6] = tested on: ECHCG (Barnyardgrass); assay: Preemergence herbicidal evaluation; type: in vivo, Echinochloa crus-galli; conditions: rated 4-5 weeks after treatment
In short: as §2

[7] = tested on: SETVI (Foxtail, Green); assay: Preemergence herbicidal evaluation; type: in vivo, Setaria viridis; conditions: rated 4-5 weeks after treatment
In short: as §2

[8] = tested on: ORYSAT (Rice, Tebonnet); assay: Preemergence herbicidal evaluation; type: in vivo, Oryza sativa, (L.) Tebonnet; conditions: rated 4-5 weeks after treatment
In short: as §2

[9] = tested on: TRZAWR (Wheat, Winter, cv Riband); assay: Preemergence herbicidal evaluation; type: in vivo, Triticum aestivum; conditions: rated 4-5 weeks after treatment
In short: as §2

[10] = tested on: ECHORC (Watergrass (Calif.)); assay: Preemergence weed control under flooded paddy conditions; type: in vivo, Echinochloa oryzoides; conditions: rated 3-4 weeks after treatment
In short: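 Silt loam, seeds in top 0.5 cm; flood held 1.5-3 cm; test cpd as acetone/water 50/50 into flood water, ~0.0313-0.500 kg/ha a.i.; greenhouse 3-4 wk; visual 0-9 score vs control.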

[11] = tested on: MOOVA (Monochoria); assay: as above; type: in vivo, Monochoria vaginalis; conditions: rated 3-4 weeks after treatment
In short: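 Seeds or propagules sown in top 0.5 cm of silt loam soil, flooded 1.5 to 3 cm above surface throughout. Compound in 50/50 v/v aqueous/acetone pipetted into flood water at about 0.0313 to 0.500 kg/ha. Visual 0-9 rating versus control after three to four weeks in greenhouse.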

[12] = tested on: ECHORC (Watergrass (Calif.)); assay: Postemergence weed control under flooded paddy conditions; type: in vivo, Echinochloa oryzoides; conditions: postemergence weeds, 3-4 weeks after treatment
In short: (§3)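 Weeds 3 to 5 cm tall and rice seedlings at the 1.5 to 2.5 leaf stage were flooded, with water held 1.5 to 3 cm above the soil. Compounds in 50/50 v/v aqueous/acetone went into the flood water at about 0.0313 to 0.500 kg/ha. Visual 0-9 ratings versus control were made 3 to 4 weeks later.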

[13] = tested on: CYPIR (Rice Flatsedge); assay: as above; type: in vivo, Cyperus iria; conditions: postemergence weeds, 3-4 weeks after treatment
In short: as §3

CCOC(=O)/C=C1/S/C(=N/c2cc(-n3c(=O)cc(C(F)(F)F)n(C)c3=O)c(F)cc2Cl)N(CC(=O)OCC)C1=O [Compound 14]
3.8: Herbicidal rating ECHORC ([12]; rate 0.1250 kg/ha)
3.0: ECHCG preemergence herbicidal rating ([6]; rate 0.2500 kg/ha) | ORYSAT preemergence herbicidal rating ([8]; rate 0.5000 kg/ha)
1.5: IPOHE preemergence herbicidal rating ([5]; rate 0.0625 kg/ha) | Herbicidal rating ECHORC ([10]; 0.0313 kg/ha)
0.8: Herbicidal rating ECHORC ([12]; rate 0.0313 kg/ha)
0.0: IPOHE preemergence herbicidal rating ([5]; rate 0.0313 kg/ha) | ECHCG preemergence herbicidal rating ([6]; rate 0.0313 kg/ha) | ECHCG preemergence herbicidal rating ([6]; rate 0.0625 kg/ha) | ORYSAT preemergence herbicidal rating ([8]; rate 0.0313 kg/ha) | ORYSAT preemergence herbicidal rating ([8]; rate 0.0625 kg/ha) | TRZAWR preemergence herbicidal rating ([9]; rate 0.0313 kg/ha) | TRZAWR preemergence herbicidal rating ([9]; rate 0.0625 kg/ha) | TRZAWR preemergence herbicidal rating ([9]; rate 0.1250 kg/ha) | TRZAWR preemergence herbicidal rating ([9]; rate 0.2500 kg/ha) | Herbicidal rating MOOVA ([11]; 0.2500 kg/ha)
5.8: Herbicidal rating CYPIR ([13]; rate 0.0625 kg/ha)
0.5: SETVI preemergence herbicidal rating ([7]; rate 0.0313 kg/ha) | SETVI preemergence herbicidal rating ([7]; rate 0.0625 kg/ha) | ORYSAT preemergence herbicidal rating ([8]; rate 0.1250 kg/ha)
1.0: ECHCG preemergence herbicidal rating ([6]; rate 0.1250 kg/ha) | ORYSAT preemergence herbicidal rating ([8]; rate 0.2500 kg/ha)
7.5: TRZAWR herbicidal rating ([3]; rate 0.0625 kg/ha) | IPOHE preemergence herbicidal rating ([5]; rate 0.1250 kg/ha) | Herbicidal rating ECHORC ([10]; 0.1250 kg/ha)
6.5: SETVI preemergence herbicidal rating ([7]; rate 0.1250 kg/ha)
4.0: Herbicidal rating CYPIR ([13]; rate 0.0313 kg/ha)
2.3: Herbicidal rating ECHORC ([12]; rate 0.0625 kg/ha)
4.5: Herbicidal rating ECHORC ([10]; 0.0625 kg/ha) | Herbicidal rating MOOVA ([11]; 0.0313 kg/ha) | Herbicidal rating MOOVA ([11]; 0.0625 kg/ha) | Herbicidal rating MOOVA ([11]; 0.1250 kg/ha) | Herbicidal rating CYPIR ([13]; rate 0.2500 kg/ha)
6.0: TRZAWR herbicidal rating ([3]; rate 0.0313 kg/ha) | ECHCG preemergence herbicidal rating ([6]; rate 0.5000 kg/ha)
6.8: Herbicidal rating CYPIR ([13]; rate 0.1250 kg/ha)
9.0: ABUTH herbicidal rating ([1]; rate 0.0156 kg/ha) | ABUTH herbicidal rating ([1]; rate 0.0313 kg/ha) | ABUTH herbicidal rating ([1]; rate 0.0625 kg/ha) | ABUTH herbicidal rating ([1]; rate 0.1250 kg/ha) | IPOHE herbicidal rating ([2]; rate 0.0156 kg/ha) | IPOHE herbicidal rating ([2]; rate 0.0313 kg/ha) | IPOHE herbicidal rating ([2]; rate 0.0625 kg/ha) | IPOHE herbicidal rating ([2]; rate 0.1250 kg/ha) | TRZAWR herbicidal rating ([3]; rate 0.1250 kg/ha) | CHEAL preemergence herbicidal rating ([4]; rate 0.0313 kg/ha) | CHEAL preemergence herbicidal rating ([4]; rate 0.0625 kg/ha) | CHEAL preemergence herbicidal rating ([4]; rate 0.1250 kg/ha) | CHEAL preemergence herbicidal rating ([4]; rate 0.2500 kg/ha) | CHEAL preemergence herbicidal rating ([4]; rate 0.5000 kg/ha) | IPOHE preemergence herbicidal rating ([5]; rate 0.2500 kg/ha) | IPOHE preemergence herbicidal rating ([5]; rate 0.5000 kg/ha) | SETVI preemergence herbicidal rating ([7]; rate 0.2500 kg/ha) | SETVI preemergence herbicidal rating ([7]; rate 0.5000 kg/ha) | Herbicidal rating ECHORC ([10]; 0.2500 kg/ha)
5.5: TRZAWR herbicidal rating ([3]; rate 0.0156 kg/ha)
7.0: Herbicidal rating ECHORC ([12]; rate 0.2500 kg/ha)

CCOC(=O)CN1C(=O)C2(CC2)SC1=Nc1cc(-n2c(=O)cc(C(F)(F)F)n(C)c2=O)c(F)cc1Cl [Compound 15, Ethyl 5-{{2-chloro-5-[3,6-dihydro-3-methyl-2,6-dioxo-4-(trifluoromethyl)-1(2H)-pyrimidinyl]-4-fluorophenyl}imino}-7-oxo-4-thia-6-azaspiro[2.4]-heptane-6-acetate]
6.5: TRZAWR herbicidal rating ([3]; rate 0.0625 kg/ha) | CHEAL preemergence herbicidal rating ([4]; rate 0.0156 kg/ha)
9.0: ABUTH herbicidal rating ([1]; rate 0.0156 kg/ha) | ABUTH herbicidal rating ([1]; rate 0.0313 kg/ha) | ABUTH herbicidal rating ([1]; rate 0.0625 kg/ha) | ABUTH herbicidal rating ([1]; rate 0.1250 kg/ha) | IPOHE herbicidal rating ([2]; rate 0.0313 kg/ha) | IPOHE herbicidal rating ([2]; rate 0.0625 kg/ha) | IPOHE herbicidal rating ([2]; rate 0.1250 kg/ha) | CHEAL preemergence herbicidal rating ([4]; rate 0.0313 kg/ha) | CHEAL preemergence herbicidal rating ([4]; rate 0.0625 kg/ha) | CHEAL preemergence herbicidal rating ([4]; rate 0.1250 kg/ha) | CHEAL preemergence herbicidal rating ([4]; rate 0.2500 kg/ha) | IPOHE preemergence herbicidal rating ([5]; rate 0.2500 kg/ha) | SETVI preemergence herbicidal rating ([7]; rate 0.2500 kg/ha) | Herbicidal rating ECHORC ([10]; 0.0625 kg/ha) | Herbicidal rating ECHORC ([10]; 0.1250 kg/ha) | Herbicidal rating ECHORC ([10]; 0.2500 kg/ha) | Herbicidal rating MOOVA ([11]; 0.0313 kg/ha) | Herbicidal rating MOOVA ([11]; 0.0625 kg/ha) | Herbicidal rating MOOVA ([11]; 0.1250 kg/ha) | Herbicidal rating MOOVA ([11]; 0.2500 kg/ha) | Herbicidal rating ECHORC ([12]; rate 0.0625 kg/ha) | Herbicidal rating ECHORC ([12]; rate 0.1250 kg/ha) | Herbicidal rating ECHORC ([12]; rate 0.2500 kg/ha)
1.5: IPOHE preemergence herbicidal rating ([5]; rate 0.0313 kg/ha) | IPOHE preemergence herbicidal rating ([5]; rate 0.0625 kg/ha) | ORYSAT preemergence herbicidal rating ([8]; rate 0.2500 kg/ha)
4.5: ECHCG preemergence herbicidal rating ([6]; rate 0.2500 kg/ha)
2.0: ECHCG preemergence herbicidal rating ([6]; rate 0.1250 kg/ha) | Herbicidal rating CYPIR ([13]; rate 0.0313 kg/ha) | Herbicidal rating CYPIR ([13]; rate 0.0625 kg/ha)
1.0: IPOHE preemergence herbicidal rating ([5]; rate 0.0156 kg/ha) | ECHCG preemergence herbicidal rating ([6]; rate 0.0625 kg/ha) | ORYSAT preemergence herbicidal rating ([8]; rate 0.1250 kg/ha)
7.0: TRZAWR herbicidal rating ([3]; rate 0.1250 kg/ha) | IPOHE preemergence herbicidal rating ([5]; rate 0.1250 kg/ha) | Herbicidal rating CYPIR ([13]; rate 0.2500 kg/ha)
4.0: SETVI preemergence herbicidal rating ([7]; rate 0.1250 kg/ha)
0.5: ECHCG preemergence herbicidal rating ([6]; rate 0.0313 kg/ha) | SETVI preemergence herbicidal rating ([7]; rate 0.0156 kg/ha) | SETVI preemergence herbicidal rating ([7]; rate 0.0313 kg/ha) | SETVI preemergence herbicidal rating ([7]; rate 0.0625 kg/ha) | ORYSAT preemergence herbicidal rating ([8]; rate 0.0625 kg/ha)
0.0: ECHCG preemergence herbicidal rating ([6]; rate 0.0156 kg/ha) | ORYSAT preemergence herbicidal rating ([8]; rate 0.0156 kg/ha) | ORYSAT preemergence herbicidal rating ([8]; rate 0.0313 kg/ha) | TRZAWR preemergence herbicidal rating ([9]; rate 0.0156 kg/ha) | TRZAWR preemergence herbicidal rating ([9]; rate 0.0313 kg/ha) | TRZAWR preemergence herbicidal rating ([9]; rate 0.0625 kg/ha)
6.0: IPOHE herbicidal rating ([2]; rate 0.0156 kg/ha) | TRZAWR herbicidal rating ([3]; rate 0.0313 kg/ha) | Herbicidal rating ECHORC ([10]; 0.0313 kg/ha) | Herbicidal rating ECHORC ([12]; rate 0.0313 kg/ha) | Herbicidal rating CYPIR ([13]; rate 0.1250 kg/ha)
5.0: TRZAWR herbicidal rating ([3]; rate 0.0156 kg/ha) | TRZAWR preemergence herbicidal rating ([9]; rate 0.1250 kg/ha) | TRZAWR preemergence herbicidal rating ([9]; rate 0.2500 kg/ha)
